Measurements as given in patent US10745384B2, “Indazole derivatives as αv integrin antagonists” (BRISTOL-MYERS SQUIBB COMPANY, priority 2016, dated 2020).

Molecular target: T1, human αVβ6 (Homo sapiens, UniProt P06756+P18564)
T1 construct: purchased R & D systems 3817-AV
Assay: human αVβ6 HTRF binding assay
Conditions: recombinant human αVβ6 integrin, FITC-conjugated fibronectin
Method: All binding assays used the HTRF (homogeneous time resolved fluorescence) technology from Cisbio International, therefore all assays are described as HTRF binding assays. The assay results for the Examples are listed above together with the characterization data. The HTRF binding assays are established for the following integrins: human αVβ6, human αVβ1, human αVβ3, human αVβ5, and human αVβ8. All assays used the following assay buffer: 20 mM Tris, pH 7.4, 1 mM MgCl2, 1 mM MnCl2, 0.01% Tween 20, and 0.01% BSA. Alternatively, a SPA-based assay was used for evaluation of receptor binding.
The following describes the components and a representative procedure for the human αVβ6 HTRF binding assay: Recombinant human αVβ6 Integrin (R & D systems, 3817-AV) was biotinylated. Biotinylated human αVβ6 Integrin was added to assay vessel at a final concentration of 1.25 nM. FITC-conjugated fibronectin (Cytoskeleton, FNR02) was then added at the final concentration of 5 nM. The mixture was centrifuged at 600 rpm for three minutes using Thermo Fisher Heraeus Multifuge X3 centrifuge and then incubated at room temperature for an hour. Streptavidin Terbium (Cisbio international 610STLB) was then added at the final concentration of 0.625 nM. The resulting mixture was centrifuged at 600 rpm for three minutes using Thermo Fisher Heraeus Multifuge X3 centrifuge and then incubated at room temperature overnight in dark before reading HTRF signals. […]

T1 sequence (P06756 31-992 limits assumed): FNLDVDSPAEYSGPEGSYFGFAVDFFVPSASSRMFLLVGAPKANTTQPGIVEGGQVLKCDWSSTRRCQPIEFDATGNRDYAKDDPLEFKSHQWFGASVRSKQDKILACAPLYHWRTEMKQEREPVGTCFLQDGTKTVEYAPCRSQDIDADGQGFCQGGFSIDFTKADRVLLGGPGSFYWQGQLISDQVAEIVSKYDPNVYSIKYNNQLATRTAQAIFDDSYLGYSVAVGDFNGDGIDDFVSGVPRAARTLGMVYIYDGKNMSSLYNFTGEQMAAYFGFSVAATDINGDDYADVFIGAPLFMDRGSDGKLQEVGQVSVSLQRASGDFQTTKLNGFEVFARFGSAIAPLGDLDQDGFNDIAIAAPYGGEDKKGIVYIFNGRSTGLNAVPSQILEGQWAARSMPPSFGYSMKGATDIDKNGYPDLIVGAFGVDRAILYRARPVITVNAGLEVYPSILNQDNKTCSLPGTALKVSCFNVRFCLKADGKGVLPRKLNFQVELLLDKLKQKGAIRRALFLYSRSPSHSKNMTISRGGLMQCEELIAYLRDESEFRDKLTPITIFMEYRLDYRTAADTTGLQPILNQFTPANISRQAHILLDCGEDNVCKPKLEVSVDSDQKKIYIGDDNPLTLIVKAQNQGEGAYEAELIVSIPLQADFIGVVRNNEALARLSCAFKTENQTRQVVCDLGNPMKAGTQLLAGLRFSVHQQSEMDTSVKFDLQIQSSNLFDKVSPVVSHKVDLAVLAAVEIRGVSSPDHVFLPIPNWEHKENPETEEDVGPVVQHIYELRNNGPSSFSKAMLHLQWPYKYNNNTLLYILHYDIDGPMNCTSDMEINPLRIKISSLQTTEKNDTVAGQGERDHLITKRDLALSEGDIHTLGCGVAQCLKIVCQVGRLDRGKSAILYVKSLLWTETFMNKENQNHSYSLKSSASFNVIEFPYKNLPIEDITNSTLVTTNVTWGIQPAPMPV
T1 sequence (P18564 22-707 limits assumed): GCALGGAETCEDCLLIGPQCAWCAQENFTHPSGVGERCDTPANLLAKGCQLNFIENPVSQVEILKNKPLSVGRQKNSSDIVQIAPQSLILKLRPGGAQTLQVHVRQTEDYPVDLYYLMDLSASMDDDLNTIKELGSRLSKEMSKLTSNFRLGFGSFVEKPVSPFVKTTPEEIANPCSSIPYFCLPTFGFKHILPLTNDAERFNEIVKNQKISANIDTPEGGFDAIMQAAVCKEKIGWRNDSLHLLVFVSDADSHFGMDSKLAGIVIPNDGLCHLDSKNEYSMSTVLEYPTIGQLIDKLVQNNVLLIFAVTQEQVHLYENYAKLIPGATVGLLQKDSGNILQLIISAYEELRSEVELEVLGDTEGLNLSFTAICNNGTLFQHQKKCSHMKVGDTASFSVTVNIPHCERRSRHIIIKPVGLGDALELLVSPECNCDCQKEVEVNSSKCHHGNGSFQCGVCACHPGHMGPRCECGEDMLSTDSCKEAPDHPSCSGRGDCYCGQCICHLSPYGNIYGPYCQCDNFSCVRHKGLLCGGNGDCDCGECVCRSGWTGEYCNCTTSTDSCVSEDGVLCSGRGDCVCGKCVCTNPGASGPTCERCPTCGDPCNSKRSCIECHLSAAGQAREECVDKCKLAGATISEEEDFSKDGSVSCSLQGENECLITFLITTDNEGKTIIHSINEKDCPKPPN

| Structure (SMILES) | IC50 |
| --- | --- |
| Cc1ncc([C@@H](CC(=O)O)n2ncc3cc(OCCc4ccc5c(n4)N[C@H](C)CC5)ccc32)cn1 (single isomer, unassigned) [Example 175] | 6000 nM |
| Cc1ncc([C@H](CC(=O)O)n2ncc3cc(OCCc4ccc5c(n4)N[C@@H](C)CC5)ccc32)cn1 (single isomer, unassigned) [Example 178] | 110 nM |
| COc1ccc(C(CC(=O)O)n2ncc3c(CCCc4ccc5c(n4)NCCC5)cccc32)cn1 (stereo not shown) [Example 1, 3-(6-Methoxypyridin-3-yl)-3-(4-(3-(5,6,7,8-tetrahydro-1,8-naphthyridin-2-yl)propyl)-1H-indazol-1-yl)propanoic acid] | 1600 nM |
| COc1ccc(C(CC(=O)O)n2ncc3cc(CCc4ccc5c(n4)NCCC5)ccc32)cn1 (stereo not shown) [Example 2, 3-(6-Methoxypyridin-3-yl)-3-(5-(2-(5,6,7,8-tetrahydro-1,8-naphthyridin-2-yl)ethyl)-1H-indazol-1-yl)propanoic acid] | 110 nM |
| O=C(N[C@@H](Cn1cc2cc(OCCc3ccc4c(n3)NCCC4)ccc2n1)C(=O)O)OCc1ccccc1 [Example 4, (S)-2-(((Benzyloxy)carbonyl)amino)-3-(5-(2-(5,6,7,8-tetrahydro-1,8-naphthyridin-2-yl)ethoxy)-2H-indazol-2-yl)propanoic acid] | 21 nM |
| O=C(O)CC(c1ccccc1)n1ncc2cc(OCCCc3ccc4c(n3)NCCC4)ccc21 (stereo not shown) [Example 5, 3-Phenyl-3-(5-(3-(5,6,7,8-tetrahydro-1,8-naphthyridin-2-yl)propoxy)-1H-indazol-1-yl)propanoic acid] | 440 nM |
| COc1ccc([C@H](CC(=O)O)n2cc3cc(OCCc4ccc5c(n4)NCCC5)ccc3n2)cn1 [Example 6, (S)-3-(6-Methoxypyridin-3-yl)-3-(5-(2-(5,6,7,8-tetrahydro-1,8-naphthyridin-2-yl)ethoxy)-2H-indazol-2-yl)propanoic acid] | 600 nM |
| COc1ccc([C@H](CC(=O)O)n2cc3ccc(Cc4cc5c(nc4C)NCCC5)cc3n2)cn1 [Example 8, (S)-3-(6-Methoxypyridin-3-yl)-3-(6-((2-methyl-5,6,7,8-tetrahydro-1,8-naphthyridin-3-yl)methyl)-2H-indazol-2-yl)propanoic acid] | 390 nM |
| COc1ccc([C@H](CC(=O)O)n2cc3ccc(CCCc4ccc5c(n4)NCCC5)cc3n2)cn1 [Example 9, (S)-3-(6-Methoxypyridin-3-yl)-3-(6-(3-(5,6,7,8-tetrahydro-1,8-naphthyridin-2-yl)propyl)-2H-indazol-2-yl)propanoic acid] | 2.6 nM |
| COc1ccc([C@H](CC(=O)O)n2cc3ccc(CCc4cc5c(nc4C)NCCC5)cc3n2)cn1 [Example 10, (S)-3-(6-Methoxypyridin-3-yl)-3-(6-(2-(2-methyl-5,6,7,8-tetrahydro-1,8-naphthyridin-3-yl)ethyl)-2H-indazol-2-yl)propanoic acid] | 160 nM |
| COc1ccc(C(CC(=O)O)n2ncc3nc(OCCc4ccc5c(n4)NCCC5)ccc32)cn1 (stereo not shown) [Example 11, 3-(6-Methoxypyridin-3-yl)-3-(5-(2-(5,6,7,8-tetrahydro-1,8-naphthyridin-2-yl)ethoxy)pyrazolo[4,3-b]pyridin-1-yl)propanoic acid] | 120 nM |
| COc1ccc(C(CC(=O)O)n2ncc3cc(OCCNC4=NCCN4)ccc32)cn1 (stereo not shown) [Example 12, 3-(5-(2-((4,5-Dihydroimidazol-2-yl)amino)ethoxy)-1H-indazol-1-yl)-3-(6-methoxypyridin-3-yl)propanoic acid] | 2000 nM |
| Cc1cc(C)c(S(=O)(=O)NC(Cn2ncc3cc(OCCc4ccc5c(n4)NCCC5)ccc32)C(=O)O)c(C)c1 (stereo not shown) [Example 13, 3-(5-(2-(5,6,7,8-Tetrahydro-1,8-naphthyridin-2-yl)ethoxy)-1H-indazol-1-yl)-2-((2,4,6-trimethylphenyl)sulfonamido)propanoic acid] | 320 nM |
| O=C(O)CC(c1cc(Cl)cc(Cl)c1)n1ncc2c(CCCc3ccc4c(n3)NCCC4)cccc21 (stereo not shown) [Example 18, 3-(3,5-Dichlorophenyl)-3-(4-(3-(5,6,7,8-tetrahydro-1,8-naphthyridin-2-yl)propyl)-1H-indazol-1-yl)propanoic acid] | 2700 nM |
| O=C(O)CC(c1cnc2ccccc2n1)n1ncc2c(CCCc3ccc4c(n3)NCCC4)cccc21 (stereo not shown) [Example 19, 3-(Quinoxalin-2-yl)-3-(4-(3-(5,6,7,8-tetrahydro-1,8-naphthyridin-2-yl)propyl)-1H-indazol-1-yl)propanoic acid] | 220 nM |
| COc1ccc(C(CC(=O)O)n2ncc3cc(CCCc4ccc5c(n4)NCCC5)ccc32)cn1 (stereo not shown) [Example 20, 3-(6-Methoxypyridin-3-yl)-3-(5-(3-(5,6,7,8-tetrahydro-1,8-naphthyridin-2-yl)propyl)-1H-indazol-1-yl)propanoic acid] | 70 nM |
| O=C(O)CC(c1cc(Cl)cc(Cl)c1)n1ncc2cc(CCCc3ccc4c(n3)NCCC4)ccc21 (stereo not shown) [Example 21, 3-(3,5-Dichlorophenyl)-3-(5-(3-(5,6,7,8-tetrahydro-1,8-naphthyridin-2-yl)propyl)-1H-indazol-1-yl)propanoic acid] | 44 nM |
| O=C(O)CC(c1cnc2ccccc2n1)n1ncc2cc(CCCc3ccc4c(n3)NCCC4)ccc21 (stereo not shown) [Example 22, 3-(Quinoxalin-2-yl)-3-(5-(3-(5,6,7,8-tetrahydro-1,8-naphthyridin-2-yl)propyl)-1H-indazol-1-yl)propanoic acid] | 190 nM |
| CN(C)C(=O)c1cccc(C(CC(=O)O)n2ncc3cc(CCc4ccc5c(n4)NCCC5)ccc32)c1 (stereo not shown) [Example 24, 3-(3-(Dimethylcarbamoyl)phenyl)-3-(5-(2-(5,6,7,8-tetrahydro-1,8-naphthyridin-2-yl)ethyl)-1H-indazol-1-yl)propanoic acid] | 130 nM |
| CN(C)Cc1cccc(C(CC(=O)O)n2ncc3cc(CCc4ccc5c(n4)NCCC5)ccc32)c1 (stereo not shown) [Example 26, 3-(3-((Dimethylamino)methyl)phenyl)-3-(5-(2-(5,6,7,8-tetrahydro-1,8-naphthyridin-2-yl)ethyl)-1H-indazol-1-yl)propanoic acid] | 120 nM |
| CN(C)C(=O)c1cccc(C(CC(=O)O)n2ncc3c(OCCc4ccc5c(n4)NCCC5)cccc32)c1 (stereo not shown) [Example 29, 3-(3-(Dimethylcarbamoyl)phenyl)-3-(4-(2-(5,6,7,8-tetrahydro-1,8-naphthyridin-2-yl)ethoxy)-1H-indazol-1-yl)propanoic acid] | 1500 nM |

More lines, now with the values ahead:

| IC50 | Structure (SMILES) |
| --- | --- |
| 33 nM | Cc1ncc([C@H](CC(=O)O)n2ncc3cc(OCCc4ccc5c(n4)N[C@H](C)CC5)ccc32)cn1 (single isomer, unassigned) [Example 176] |
| 5000 nM | Cc1ncc([C@@H](CC(=O)O)n2ncc3cc(OCCc4ccc5c(n4)N[C@@H](C)CC5)ccc32)cn1 (single isomer, unassigned) [Example 177] |
| 2300 nM | COc1ccc(C(CC(=O)O)n2ncc3c(OCCc4ccc5c(n4)NCCC5)cccc32)cn1 (stereo not shown) [Example 3, 3-(6-Methoxypyridin-3-yl)-3-(4-(2-(5,6,7,8-tetrahydro-1,8-naphthyridin-2-yl)ethoxy)-1H-indazol-1-yl)propanoic acid] |
| 6.6 nM | COc1ccc([C@H](CC(=O)O)n2cc3ccc(CCc4ccc5c(n4)NCCC5)cc3n2)cn1 [Example 7, (S)-3-(6-Methoxypyridin-3-yl)-3-(6-(2-(5,6,7,8-tetrahydro-1,8-naphthyridin-2-yl)ethyl)-2H-indazol-2-yl)propanoic acid] |
| 300 nM | O=C(NC(Cn1ncc2cc(OCCc3ccc4c(n3)NCCC4)ccc21)C(=O)O)OCc1ccccc1 (stereo not shown) [Example 14, 2-(((Benzyloxy)carbonyl)amino)-3-(5-(2-(5,6,7,8-tetrahydro-1,8-naphthyridin-2-yl)ethoxy)-1H-indazol-1-yl)propanoic acid] |
| 137 nM | O=C(O)C[C@H](c1cnc2ccccc2n1)n1ncc2cc(OCCc3ccc4c(n3)NCCC4)ccc21 [Example 16, (R)-3-(Quinoxalin-2-yl)-3-(5-(2-(5,6,7,8-tetrahydro-1,8-naphthyridin-2-yl)ethoxy)-1H-indazol-1-yl)propanoic acid] |
| 61 nM | CN(C)C(=O)c1cccc(C(CC(=O)O)n2ncc3cc(CCCc4ccc5c(n4)NCCC5)ccc32)c1 (stereo not shown) [Example 23, 3-(3-(Dimethylcarbamoyl)phenyl)-3-(5-(3-(5,6,7,8-tetrahydro-1,8-naphthyridin-2-yl)propyl)-1H-indazol-1-yl)propanoic acid] |
| 530 nM | O=C(O)CC(c1ccc2c(c1)oc1ccccc12)n1ncc2cc(CCc3ccc4c(n3)NCCC4)ccc21 (stereo not shown) [Example 25, 3-(Dibenzo[b,d]furan-3-yl)-3-(5-(2-(5,6,7,8-tetrahydro-1,8-naphthyridin-2-yl)ethyl)-1H-indazol-1-yl)propanoic acid] |
| 240 nM | O=C(O)CC(c1cnc2ccccc2n1)n1ncc2cc(CCc3ccc4c(n3)NCCC4)ccc21 (stereo not shown) [Example 27, 3-(Quinoxalin-2-yl)-3-(5-(2-(5,6,7,8-tetrahydro-1,8-naphthyridin-2-yl)ethyl)-1H-indazol-1-yl)propanoic acid] |
| 210 nM | O=C(O)CC(c1cc(Cl)cc(Cl)c1)n1ncc2cc(CCc3ccc4c(n3)NCCC4)ccc21 (stereo not shown) [Example 28, 3-(3,5-Dichlorophenyl)-3-(5-(2-(5,6,7,8-tetrahydro-1,8-naphthyridin-2-yl)ethyl)-1H-indazol-1-yl)propanoic acid] |
